Test results taken from ChEMBL document CHEMBL1201862, “PubChem BioAssay data set” (2004).
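Where inhibition never reached the appropriate level, the endpoint shown equals the highest concentration tested. Otherwise, values were interpolated linearly from a five-concentration, 48-hour dose response in 96-well plates. Abbreviation: GI50, concentration required for 50% inhibition of growth.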 The source made the active and inactive calls. Cut-off read from the data, not from the text of the source: active = GI50 up to about 1.1 µM and inactive = higher.

Tests used:
Assay in all cases: DTP human tumour cell line panel, 48 h
[1] = system: DLD-1
[2] = system: SNB-78
[3] = system: DMS-114
[4] = system: XF498
[5] = system: LXFL 529
[6] = system: DMS-273
[7] = system: HOP-18
[8] = system: KM-20L2
[9] = system: RXF 631

SMILES	GI50 [1]	GI50 [2]	GI50 [3]	GI50 [4]	GI50 [5]	GI50 [6]	GI50 [7]	GI50 [8]	GI50 [9]
Cc1ccc(O)c(C(=O)CCCC(=O)c2cc(C)ccc2O)c1	> 100 µM (inactive)	55.8 µM (inactive)	32.9 µM (inactive)	> 100 µM (inactive)	> 100 µM (inactive)	55.3 µM (inactive)	> 100 µM (inactive)	> 100 µM (inactive)	–
Cc1c(/C=N/NS(=O)(=O)c2ccccc2)no[n+]1[O-]	–	–	> 100 µM (inactive)	–	> 100 µM (inactive)	–	> 100 µM (inactive)	> 100 µM (inactive)	–
CC(C)(Br)C(=O)C(Br)Br	1.77 µM (inactive)	5.06 µM (inactive)	5.36 µM (inactive)	11.6 µM (inactive)	2.23 µM (inactive)	12.6 µM (inactive)	–	18 µM (inactive)	14 µM (inactive)
Nc1nc2c(ncn2C2CCC(CO)O2)c(=O)n1C(=O)c1ccccc1 (stereo unspecified)	> 100 µM (inactive)	–	> 100 µM (inactive)	> 100 µM (inactive)	> 100 µM (inactive)	> 100 µM (inactive)	–	> 100 µM (inactive)	> 100 µM (inactive)
C#CCNC(=O)NC(CCCCNC(=O)OCc1ccccc1)C(=O)OCc1ccccc1 (stereo unspecified)	> 100 µM (inactive)	23.9 µM (inactive)	40.7 µM (inactive)	19.3 µM (inactive)	> 100 µM (inactive)	> 100 µM (inactive)	23 µM (inactive)	> 100 µM (inactive)	–
CC(C(=O)c1ccc(O)cc1)C1(O)C(=O)Nc2c(Cl)cc(Cl)cc21 (stereo unspecified)	> 89.7 µM (inactive)	46.8 µM (inactive)	13.9 µM (inactive)	23.6 µM (inactive)	26.9 µM (inactive)	70.5 µM (inactive)	–	> 92.5 µM (inactive)	> 84.9 µM (inactive)
CC(=O)OC1C/C(C)=C/[C@H](O)CC(C)/C=C/[C@@]2(C)CCC(C(C)(C)O)C12 (stereo partly specified)	> 100 µM (inactive)	> 100 µM (inactive)	> 100 µM (inactive)	> 100 µM (inactive)	> 100 µM (inactive)	> 100 µM (inactive)	> 100 µM (inactive)	> 100 µM (inactive)	> 100 µM (inactive)
Cn1ccc(=NS(=O)(=O)c2ccccc2)cc1	> 100 µM (inactive)	> 100 µM (inactive)	> 100 µM (inactive)	> 100 µM (inactive)	> 100 µM (inactive)	> 100 µM (inactive)	85.3 µM (inactive)	> 100 µM (inactive)	> 100 µM (inactive)
COC(=O)/C(C#N)=C1\CCc2ccccc21	> 100 µM (inactive)	–	> 100 µM (inactive)	> 100 µM (inactive)	> 100 µM (inactive)	> 100 µM (inactive)	–	> 100 µM (inactive)	–
CCCCCCCCCC1C(C)c2c([nH]c3ccccc23)C2C(=O)N(c3ccccc3)C(=O)C21 (stereo unspecified)	14.9 µM (inactive)	21.4 µM (inactive)	14.7 µM (inactive)	11.2 µM (inactive)	35.6 µM (inactive)	12.5 µM (inactive)	–	12.1 µM (inactive)	3.05 µM (inactive)
NC1=NS(=O)(=O)Nc2nc(-c3ccccc3)c(-c3ccccc3)nc21	> 100 µM (inactive)	> 100 µM (inactive)	–	> 100 µM (inactive)	> 100 µM (inactive)	> 100 µM (inactive)	> 100 µM (inactive)	> 100 µM (inactive)	–
CC1NS(=O)(=O)N(C)C1=O (stereo unspecified)	> 100 µM (inactive)	> 100 µM (inactive)	> 100 µM (inactive)	> 100 µM (inactive)	> 100 µM (inactive)	> 100 µM (inactive)	–	–	> 100 µM (inactive)
COc1cc(CNc2cnc3cc(N)ccc3n2)cc(OC)c1OC	58.1 µM (inactive)	–	18.8 µM (inactive)	22.6 µM (inactive)	34.9 µM (inactive)	0.191 µM (active)	78.5 µM (inactive)	14 µM (inactive)	–
